Reference: US9839701B2, “Aromatic amino acid derivative and positron emission topography (PET) probe using the same” (OSAKA UNIVERSITY, priority 2013, dated 2017)

How the values were obtained:
[1] = target: T1, human LAT1 (Homo sapiens, UniProt Q01650); assay: Inhibition of amino acid uptake in human LAT1 stably expressing cell line; type: cell-based
T1 construct: expressed in transfected cells
Source text: (§1) A human LAT1 expression vector or a human LAT2 expression vector was transfected using Lipofectamine (registered trademark) 2000 (Invitrogen) into a human embryonic kidney cell line HEK293. G418-resistant HEK293 clones were selected, and among them, a clone showing human LAT1-specific amino acid uptake and a clone showing human LAT2-specific amino acid uptake were selected and established as a human LAT1 stably expressing cell line and a human LAT2 stably expressing cell line, respectively (Khunweeraphong et al. J Pharmacol Sci. 2012 Aug. 18; 119(4): 368-80. Epub 2012 Jul. 31).
(§2) The human LAT1 stably expressing cell line and the human LAT2 stably expressing cell line were seeded at 1.2×10^5 cells/well on separate collagen-coated 24-well plates, and after 48 hours, the cells were washed 3 times with an uptake buffer (Na^2+-free Hank's balanced salt solution (HBSS), pH 7.4) prewarmed at 37° C. Compound 10a, compound 10b or a positive control FAMT (fluoro-α-methyltyrosine) was added at 100 μM, and incubation was performed at 37° C. for 3 minutes. Cells not treated with any of these compounds were used as a negative control. After the incubation, 1 μM of [^14C]L-leucine or [^14C]alanine was added to the wells, [^14C]L-leucine or [^14C]alanine uptake was allowed to proceed for 1 minute, and the cells were washed 3 times with an ice-cold uptake buffer. Subsequently, 500 μL of 0.1 M NaOH was added to each well for cell lysis, 20 μL of the lysate was used for the measurement of the protein concentration, and the remaining lysate was used for the measurement of the intracellular radioactivity. The measured radioactivity was normalized to the protein concentration, and on the assumption that the amino acid uptake activity in the negative control was 100%, the percentage (%) of inhibition of amino acid uptake in the presence of each compound was calculated.
(§3) Using the same cell lines as described in Example 2, the compound of Example 1 was examined for the inhibitory effect on leucine or alanine uptake in the human LAT1 stably expressing cell line and the human LAT2 stably expressing cell line in the same manner as in Example 2. FAMT was used as the positive control. The compound of Example 1 or FAMT was added at 100 μM. Cells not treated with either of these compounds were used as a negative control. On the assumption that the amino acid uptake activity in the negative control (control) was 100%, the percentage (%) of inhibition of amino acid uptake in the presence of FAMT or the compound of Example 1 was calculated. In addition, the cancer cell selectivity was calculated as the ratio of the amino acid uptake activity in the human LAT2 stably expressing cell line relative to that in the human LAT1 stably expressing cell line.
(§4) In another experiment, the cells were treated with the compound of Example 1 at eight different concentrations (0.1, 1, 3, 10, 30, 100, 300 and 1000 μM), and the concentration causing 50% inhibition of amino acid uptake was calculated as the IC50 value.
(§5) A human LAT1 stably expressing cell line and a human LAT2 stably expressing cell line, each of which was the same as described in Example 2, were seeded at 1.2×10^5 cells/well, and after 48 hours, the cells were washed 3 times with an uptake buffer (Na^2+-free Hank's balanced salt solution (HBSS), pH 7.4) prewarmed at 37° C. The test compounds, L-tyrosine or the positive control FAMT (fluoro-α-methyltyrosine) was added at 30 μM, and incubation was performed at 37° C. for 3 minutes. Cells not treated with any of these compounds were used as a negative control. After the incubation, 1 μM of [^14C]L-leucine or [^14C]alanine was added to the wells, [^14C]L-leucine or [^14C]alanine uptake was allowed to proceed for 1 minute, and the cells were washed 3 times with an ice-cold uptake buffer. […]

[2] = target: T2, human LAT2 (Homo sapiens, UniProt Q9UHI5); assay: Inhibition of amino acid uptake in human LAT2 stably expressing cell line; type: cell-based; conditions: human LAT2 stably expressing HEK293 cell line; for inhibition at 30 µM: HEK293, compound at 30 μM, read-out: Percentage of inhibition of LAT2-mediated amino acid uptake
T2 construct: expressed in transfected cells
T2 sequence (Q9UHI5 1-535): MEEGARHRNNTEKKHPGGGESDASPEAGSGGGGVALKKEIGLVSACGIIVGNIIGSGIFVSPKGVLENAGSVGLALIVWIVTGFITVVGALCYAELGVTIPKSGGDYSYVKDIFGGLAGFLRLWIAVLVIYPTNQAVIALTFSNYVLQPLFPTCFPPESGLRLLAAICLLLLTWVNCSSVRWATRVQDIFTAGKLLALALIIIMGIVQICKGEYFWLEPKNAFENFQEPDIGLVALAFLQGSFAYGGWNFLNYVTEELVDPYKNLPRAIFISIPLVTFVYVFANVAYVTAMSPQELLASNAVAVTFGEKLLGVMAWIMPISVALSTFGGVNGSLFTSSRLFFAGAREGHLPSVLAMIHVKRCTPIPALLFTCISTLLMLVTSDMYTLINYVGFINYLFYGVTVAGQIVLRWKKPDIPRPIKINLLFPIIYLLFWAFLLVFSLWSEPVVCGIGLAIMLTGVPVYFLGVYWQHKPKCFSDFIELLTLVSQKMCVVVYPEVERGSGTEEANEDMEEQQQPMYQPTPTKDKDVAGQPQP
T2 sequence (P08195 1-529 partner): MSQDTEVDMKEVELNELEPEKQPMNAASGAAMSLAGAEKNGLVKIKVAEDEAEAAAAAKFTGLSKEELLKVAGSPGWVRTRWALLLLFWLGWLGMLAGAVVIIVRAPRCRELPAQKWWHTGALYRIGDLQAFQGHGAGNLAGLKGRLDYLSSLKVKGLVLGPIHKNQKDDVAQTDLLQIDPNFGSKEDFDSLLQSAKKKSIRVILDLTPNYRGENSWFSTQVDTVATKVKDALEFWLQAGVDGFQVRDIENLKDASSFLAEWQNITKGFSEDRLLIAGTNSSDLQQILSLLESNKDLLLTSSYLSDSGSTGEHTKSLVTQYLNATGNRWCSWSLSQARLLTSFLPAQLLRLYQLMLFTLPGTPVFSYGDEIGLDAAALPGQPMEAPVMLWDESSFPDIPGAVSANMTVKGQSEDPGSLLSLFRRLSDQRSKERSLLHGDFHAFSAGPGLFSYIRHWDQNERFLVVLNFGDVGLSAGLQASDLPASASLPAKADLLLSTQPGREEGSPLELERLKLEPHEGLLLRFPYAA
Source text: as §1, §2, §3, §4, §5

[3] = compound at 30 μM, human LAT1 stably expressing HEK293 cell line, 30 µM

T1 sequence (Q01650 whole entry, one chain of several): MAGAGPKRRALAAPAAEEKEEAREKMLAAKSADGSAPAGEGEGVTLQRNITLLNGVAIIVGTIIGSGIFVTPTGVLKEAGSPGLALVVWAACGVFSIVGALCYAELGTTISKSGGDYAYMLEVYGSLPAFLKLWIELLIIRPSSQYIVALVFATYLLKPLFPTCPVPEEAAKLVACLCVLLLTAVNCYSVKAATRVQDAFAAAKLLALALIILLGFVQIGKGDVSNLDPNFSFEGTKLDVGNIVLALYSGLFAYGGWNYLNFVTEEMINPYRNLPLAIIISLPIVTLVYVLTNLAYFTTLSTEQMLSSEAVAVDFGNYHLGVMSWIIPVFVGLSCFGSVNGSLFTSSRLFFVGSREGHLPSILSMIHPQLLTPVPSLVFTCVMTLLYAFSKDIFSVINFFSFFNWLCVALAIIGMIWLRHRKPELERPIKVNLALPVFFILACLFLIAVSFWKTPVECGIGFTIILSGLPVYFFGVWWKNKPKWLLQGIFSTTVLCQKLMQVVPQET

| Molecule | Cancer cell selectivity (amino acid uptake activity in human LAT2 line / in human LAT1 line) ([1]; compound at 30 μM) | Percentage of inhibition of LAT1-mediated amino acid uptake [1, 3] [%] | Percentage of inhibition of LAT2-mediated amino acid uptake ([2]; compound at 30 μM, 30 µM) [%] | also measured |
| --- | --- | --- | --- | --- |
| NC(Cc1cc(OCCOCCF)ccc1I)C(=O)O (single isomer, unassigned) [compound 27 (S), 2-amino-3-(5-(2-(2-fluoroethoxy)ethoxy)-2-iodophenyl)propanoic acid] | 9.04 | 89.5 | 6.5 |  |
| fluoro-α-methyltyrosine [FAMT, reference compound] | 1.5 |  |  | Percentage of inhibition of LAT1-mediated amino acid uptake ([1]; compound at 30 μM, human LAT1 stably expressing HEK293 cell line): 44.2%; Percentage of inhibition of LAT1-mediated amino acid uptake ([1]; compound at 100 μM, human LAT1 stably expressing HEK293 cell line, 1 μM [14C]L-leucine or [14C]alanine, 1 min uptake): 52.4%; Percentage of inhibition of LAT2-mediated amino acid uptake ([2]; compound at 30 μM): 16.3%; Percentage of inhibition of LAT2-mediated amino acid uptake ([2]; compound at 100 μM, 1 μM [14C]L-leucine or [14C]alanine, 1 min uptake): 28.3% |
| NC(Cc1cc(OCCF)ccc1I)C(=O)O (single isomer, unassigned) [compound 10b, 2-amino-3-(5-(2-fluoroethoxy)-2-iodophenyl)propanoic acid] | 8.59 | 91.2 | 24.5 | Cancer cell selectivity (amino acid uptake activity in human LAT2 line / in human LAT1 line) ([1]; compound at 100 μM): higher than that in the human LAT2 stably expressing cell line |
| NC(Cc1cc(OCCCCF)ccc1I)C(=O)O (single isomer, unassigned) [compound 25b, 2-amino-3-(5-(4-fluorobutoxy)-2-iodophenyl)propanoic acid] | 15.13 | 94.1 | 11.3 |  |
| NC(Cc1cc(OCCF)ccc1I)C(=O)O (single isomer, unassigned) [compound 10a, 2-amino-3-(5-(2-fluoroethoxy)-2-iodophenyl)propanoic acid] | 1.44 | 33.8 | 4.7 | Cancer cell selectivity (amino acid uptake activity in human LAT2 line / in human LAT1 line) ([1]; compound at 100 μM): higher than that in the human LAT2 stably expressing cell line |
| NC(Cc1cc(OCCOCCF)ccc1I)C(=O)O (single isomer, unassigned) [compound 27 (R), 2-amino-3-(5-(2-(2-fluoroethoxy)ethoxy)-2-iodophenyl)propanoic acid] | 1.39 | 35.4 |  | inhibition at 30 µM [2]: 10.6% |
| N[C@@H](Cc1ccc(O)cc1)C(=O)O [L-Tyr, L-tyrosine, reference compound] | 1.16 |  |  | inhibition at 30 µM ([1]; HEK293, compound at 30 μM, human LAT1 stably expressing HEK293 cell line, read-out: Percentage of inhibition of LAT1-mediated amino acid uptake): 42.3%; inhibition at 30 µM [2]: 33.1% |
| NC(Cc1cc(OCCCCF)ccc1I)C(=O)O (single isomer, unassigned) [compound 25a, 2-amino-3-(5-(4-fluorobutoxy)-2-iodophenyl)propanoic acid] | 1.49 | 37.7 |  | inhibition at 30 µM [2]: 7.3% |

Further lines, with some results ahead:

| Cancer cell selectivity (amino acid uptake activity in human LAT2 line / in human LAT1 line) ([1]; compound at 30 μM) | Percentage of inhibition of LAT1-mediated amino acid uptake [1, 3] [%] | Percentage of inhibition of LAT2-mediated amino acid uptake ([2]; compound at 30 μM, 30 µM) [%] | Molecule | also measured |
| --- | --- | --- | --- | --- |
| 1.12 | 11.6 | 0.8 | NC(Cc1cc(OCCF)ccc1Br)C(=O)O (single isomer, unassigned) [compound 24a, 2-amino-3-(2-bromo-5-(2-fluoroethoxy)phenyl)propanoic acid] |  |
| 4.42 | 85.1 | 34.3 | NC(Cc1cc(OCCF)ccc1Br)C(=O)O (single isomer, unassigned) [compound 24b, 2-amino-3-(2-bromo-5-(2-fluoroethoxy)phenyl)propanoic acid] |  |
| 11.2 | 94.5 | 39.9 | NC(Cc1cc(OCCF)ccc1C1CC1)C(=O)O (single isomer, unassigned) [compound 23b, 2-amino-3-(2-cyclopropyl-5-(2-fluoroethoxy)phenyl)propanoic acid] |  |
| 1.41 | 37.5 | 11.8 | NC(Cc1cc(OCCF)ccc1C1CC1)C(=O)O (single isomer, unassigned) [compound 23a, 2-amino-3-(2-cyclopropyl-5-(2-fluoroethoxy)phenyl)propanoic acid] |  |
